For data set [1] the following is noted: for inhibition of formation of 2′,2′ bis methylnaltrexone degradant / inhibition of formation of 7-dihydroxy-methylnaltrexone degradant: in presence of iron, 40° C. and room temperature. Here is the method:
FIG. 1A and FIG. 1B: Effect of CaEDTA and NaEDTA on the formation of 2′,2-bis methylnaltrexone in the presence of iron at 40° C. (FIG. 1A) and room temperature, […] (FIG. 1B).
FIGS. 2A, 2B, 2C, and 2D: Effect of CaEDTA on the formation of 7-dihydroxy methylnaltrexone in solutions. The effect of CaEDTA and NaEDTA on the formation of 7-dihydroxy methylnaltrexone in the presence of iron at 40° C. (FIG. 2A) and room temperature, 25° (FIG. 2B) was assessed. […] The effect of CaEDTA on the formation of 7-dihydroxy methylnaltrexone in solution following one month storage at room temperature (FIG. 2C) and at 40° C. (FIG. 2D) was assessed. The presence of CaEDTA reduced formation of 7-dihydroxy methylnaltrexone at either temperature.
FIG. 3A and FIG. 3B: Effect of CaEDTA in methylnaltrexone solution on the formation of a methylnaltrexone degradant having an RRT 0.79 (“the 0.79 degradant”). The effect of CaEDTA and NaEDTA on the formation of the 0.79 degradant at room temperature, 25° (FIG. 3A) and at 40° C. (FIG. 3B) was assessed. Calcium EDTA was not effective at inhibiting formation of the 0.79 degradant, and may increase levels of degradant formation.
Inhibition of metal-catalyzed formation of 2,2′bis methylnaltrexone. […] We have found by HPLC analysis (Method B) the 2,2′bis methylnaltrexone degradant results in a peak having an RRT about 1.55. Fe^3+ is an ion that can get into the liquid formulation from several sources. For example, it can be leached from stainless steel process equipment, syringe needles, stoppers and amber vials. EDTA, as a metal chelating agent sequesters the available Fe^3+ in the solution, thereby preventing catalysis of the undesirable metal-catalyzed reactions. Methylnaltrexone solutions were prepared in 0.9% NaCl, in the presence of iron and various concentrations of sodium EDTA and calcium EDTA. Used throughout the experiments sodium EDTA is EDTA disodium dihydrate, and the terms sodium EDTA, EDTA disodium dihydrate, and NaEDTA are used interchangeably throughout. Used throughout the experiments calcium EDTA is calcium EDTA disodium, and the terms calcium EDTA, calcium EDTA disodium, and CaEDTA are used interchangeably throughout. Formation of 2,2′bis methylnaltrexone was assessed at room temperature as well as at 40° C. Addition of either sodium or calcium EDTA solution was effective at inhibiting formation of the 2,2′bis methylnaltrexone degradant.
We have found Ca^2+ chelating agent provides additional inhibition of formation of a 7-dihydroxy-methylnaltrexone degradant as compared to Na^2+ chelating agent. Methylnaltrexone solutions were prepared in 0.9% NaCl, in the presence of iron and various concentrations of sodium EDTA and calcium EDTA. Formation of 7-dihydroxy-methylnaltrexone was assessed at room temperature as well as at 40° C.

In data set [2] the test system is opioid receptors. The settings on record: found in U.S. Ser. No. 11/441,395 and 11/441,452; cited from earlier work.

Each structure is given as a SMILES string.

For `O=C([O-])CN(CCN(CC(=O)[O-])CC(=O)[O-])CC(=O)[O-].[Ca+2].[Na+].[Na+]` [calcium EDTA, calcium EDTA disodium], in data set [1], the “inhibition of formation of 2′,2′ bis methylnaltrexone degradant” value is on record as “effective inhibitors” and the “inhibition of formation of 7-dihydroxy-methylnaltrexone degradant” value was “effective inhibitor”. In data set [1] (room temperature and 40° C.), the “inhibition of formation of the 0.79 degradant” value is reported as “not effective”.

Take `C[N+]1(CC2CC2)CCC23c4c5ccc(O)c4OC2C(=O)CCC3(O)C1C5` (single isomer, unassigned) [R—N isomer of methylnaltrexone]: in data set [2], the opioid activity entry is given as “opioid antagonist”.

As to `C[N@@+]1(CC2CC2)CC[C@]23c4c5ccc(O)c4OC2C(=O)CCC3(O)C1C5` (single isomer, unassigned) [S—N isomer of methylnaltrexone], the opioid activity entry in data set [2] is recorded as “opioid agonist”.

On to `O.O.O=C([O-])CN(CCN(CC(=O)[O-])CC(=O)O)CC(=O)O.[Na+].[Na+]` [sodium EDTA, EDTA disodium dihydrate], for which, in data set [1], the “inhibition of formation of 2′,2′ bis methylnaltrexone degradant” value is “effective inhibitors” and the “inhibition of formation of 7-dihydroxy-methylnaltrexone degradant” value was “may even increase levels”.

These data come from patent US12303592B2, “Formulations for parenteral delivery of compounds and uses thereof” (Wyeth, LLC, priority 2006, dated 2025).
